Tested on: collagen
Assay: Shrinkage temperature testing of pericardial tissue fixed (cross-linked) in EGCG/PBS
Conditions: for Shrinkage Temperature: pH 7.42, 37° C., fresh tissue control 62.6 +/− 0.6
Description: A 7 cm×7 cm piece of pericardial tissue was fixed in 40 ml of 0.5% EGCG/phosphate buffered saline (PBS), pH 7.42 in a 100 mm petri dish at 37° C., 82 rpm shaking speed, for 15 min. After 15 minutes, the tissue was quickly rinsed with PBS. Three samples were cut out for immediate shrinkage temperature testing (Group A). Shrinkage temperature can be an indication of the stability of the tissue. Increased shrinkage temperature is associated with an increased resistance to degradation. An additional 7 cm×7 cm piece of pericardial tissue was fixed in 40 ml of 0.5% EGCG/PBS, pH 7.42 in a 100 mm petri dish at 37° C. for 48 hours and quickly rinsed in PBS for 15 minutes. Six samples were cut out for shrinkage temperature testing (Group B). Six samples of fresh pericardial tissue were also cut for shrinkage temperature testing (Group C—Control Group).

O=C(O[C@@H]1Cc2c(O)cc(O)cc2O[C@@H]1c1cc(O)c(O)c(O)c1)c1cc(O)c(O)c(O)c1 [EGCG, epigallocatechin gallate]
Shrinkage Temperature (Group A: pericardial tissue cross-linked for 15 min in 0.5% EGCG/PBS): 72.2 +/− 0.5 °C
Shrinkage Temperature (Group B: pericardial tissue cross-linked for 48 hours in 0.5% EGCG/PBS): 86.3 +/− 0.6 °C

Catechin
Stability of collagen via cross-linking (within 15 minutes of application under physiological conditions): increases the stability of collagen
